We go through 3 molecules from patent US5880258A (dated 1999).

Data set [1] concerns the target T1, thrombin (Homo sapiens, UniProt P00734). Kind of data set: Inhibitory action against thrombin induced death. The class given is in vivo, mice. The conditions noted are these: score 0 normal, 1 loss of roll over reflection, 2 death within 20 minutes. How it is done: To male mice (20-25 g), in non-anaesthesia, thrombin (15 NIH units/10 g) was administered intravenously, and the anti-thrombin activity of the tested compound was evaluated by observing the disappearance of roll over reflection and death as indexes. All the tested compounds were dissolved in saline and 0.05 ml/10 g were administered intravenously 5 min prior to the thrombin injection.

Data set [2] can be described thus: Prolongation of bleeding time (tail vein puncture wound). Format: in vivo. The note with it: wound 5 minutes after administration, male mice. How it is done:
Samples were injected into male mice (20-25 g) via their tail vein under anaesthesia using pentobarbital (40 mg/kg i.p.). A puncture wound was made by inserting a 21G needle (outer diameter 0.85 mm) into the other side of the tail vein 5 minutes after administration of test compounds, and the bleeding time of the wound was measured.
A filter paper was put on the wound with changes every 15 seconds. Bleeding time is defined as the time required until no red spot is observed on the filter paper.

In data set [3] the target is T1, thrombin. The data set can be described thus: anti-thrombin activity; clotting assay (coagulation time with fibrinogen as substrate). Format: biochemical. Further details: 100 μl of human-thrombin prepared at 10 NIH units/ml in aforesaid buffer. On the procedure:
Measurement of anti-thrombin activity was done by looking at anti-coagulant activity as an index using fibrinogen as the substrate. That is, the compounds were dossolved in 200 μl of 0.1 mM Tris-HCl buffer (pH7.5) containing 0.1% polyethyleneglycol-6000, 100 μl of human-thrombin prepared at 10 NIH units/ml in aforesaid buffer, were added 200 μl of human-fibrinogen (Sigma) prepared at 6 mg/ml in aforesaid tris-hydrochloride buffer were added, and the coagulation time of the reaction mixtures were measured. For measuring of coagulation times, coagulation time analyzer (Amelung KC10A) was used. Obtained values were converted into units by using a previously prepared thrombin standard curve. Graphs were prepared by plotting the converted values on the vertical axis, and the concentrations of the compounds on the horizontal axis. In the graphs, the thrombin unit was defined as 100 at a compound concentration of 0. The concentration of compounds corresponding to 50 units were defined as 50% inhibitory concentrations of compounds.

The subject of a further data set is α-chymotrypsin. Kind of data set: α-chymotrypsin in 0.1M sodium-phoshate buffer (pH7.0). The note with it: 37° C., up to 24 hours.
In data set [4] the test system is V8 protease (product of Sigma). The data set can be described thus: V8 protease in 0.1M sodium-phoshate buffer (pH7.0). The note with it: 37° C., up to 1 hour.
Data set [5] deals with carboxypeptidase Y (product of Boehringer Mannheim). The data set can be described thus: carboxypeptidase Y in 0.1M sodium-phoshate buffer (pH7.0). The conditions noted are these: 37° C., up to 30 min.

Entries after “also recorded” stand apart in the source; their conditions may differ. *1 amine or outer side, *2 acyl side, *3 side chain or, on linkers, in order; H or OH if unused. Where a SMILES comes first, the peptide text is derived from it. Where no end group is shown, it is not given here. [ ]: non-standard residue; d: D form. sY = N[C@@H](Cc1ccc(OS(=O)(=O)O)cc1)C(=O)O; Suc = O=C(CCC(=O)[*:2])[*:1]

In the case of `CC[C@H](C)[C@H](NC(=O)[C@@H]1CCCN1C(=O)[C@H](CCC(=O)O)NC(=O)[C@H](Cc1ccccc1)NC(=O)[C@H](CC(=O)O)NC(=O)CNC(=O)CCC(=O)O)C(=O)N1CCC[C@H]1C(=O)N[C@@H](CCC(=O)O)C(=O)N[C@@H](Cc1ccc(OS(=O)(=O)O)cc1)C(=O)N[C@@H](Cc1ccc(OS(=O)(=O)O)cc1)C(=O)N[C@@H](CC(C)C)C(=O)N[C@@H](CCC(N)=O)C(=O)O` [Sulfated form of (C), Suc--Gly--Asp--Phe--Glu--Pro--Ile--Pro--Glu--Tyr(SO3 H)--Tyr(SO3 H)--Leu--Gln--OH] (Suc-GDFEPIPE[sY][sY]LQ-OH), the Score on thrombin [1] (20 mg/kg i.v. 5 min before thrombin 15 NIH units/10 g) was 1.2; on thrombin [1] (50 mg/kg i.v. 5 min before thrombin 15 NIH units/10 g) it was 0.8; at thrombin [1] (100 mg/kg i.v. 5 min before thrombin 15 NIH units/10 g), 0.6. Further, the values for the Bleeding time in data set [2] (10 mg/kg via tail vein), in data set [2] (20 mg/kg via tail vein) and in data set [2] (50 mg/kg via tail vein) were 277.5 ± 31.5 s, 366.0 ± 23.0 s and 432.0 ± 33.3 s, respectively. For the same molecule, the Potency at thrombin [3] (calculated using the definition that HV-1 (54-65) potency is 1) is on record as 88.94. The IC50 at thrombin [3] (concentration corresponding to 50 thrombin units, human-thrombin 10 NIH units/ml, human-fibrinogen 6 mg/ml, read-out: 50% Inhibition Concentration (converted)) was 42.9 nM.
As to GDFEEIPYYYLQ, the cleaved bond entry with α-chymotrypsin was “Tyr-Tyr”.
“Gly--Asp--Phe--Glu--Glu--Ile--Pro--Glu--Tyr--Tyr(SO3 H)--Leu--Gln”: the cleaved bond entry is “Glu-Tyr” in data set [4] and “Leu-Gln; also recorded: Tyr(SO3 H)-Leu” in data set [5]. In addition, the not cleaved result in data set [5] is “no Tyr was released (30 min.)”.
